# Source: US20180325157A1, “A DIETARY SUPPLEMENT COMPRISING BETA-GLUCAN AND CASEIN HYDROLSATE FOR IMPROVING HEALTH AND GROWTH PERFORMANCE IN A MAMMAL” (University College Dublin, National University of Ireland, …, priority 2015, published 2018)
# Where “and” joins values, the source holds several entries; their conditions need not be identical. Equal entries are not always repeated.
# Columns and labels:
# [1] = test system: selected panel of bacterial groups; test: qPCR of the other selected bacterial groups in colonic digesta; format: in vivo, pig; conditions: day 12
# Procedure: (§1) At day 12, all the pigs were sacrificed following a lethal injection of Euthatal (pentobarbitone sodium BP-Merial Animal Ltd, Sandringham House, Essex, UK) at a rate of […] live body weight. In sterile conditions, the digestive tract was removed and tissue samples from colon were placed in sterile phosphate buffer saline (PBS) (Oxoid, Basingstoke, UK). The digesta samples were recovered aseptically from caecum and colon and transported on ice to proper storage conditions.
# (§2) To evaluate the effect of feed additives on the microbiota, samples of digesta contents (approximately 10 g) were recovered from the caecum and colon of each animal in sterile conditions immediately after slaughter. […] Quantity and quality of DNA were assessed using a Nanodrop (Nanodrop, ND1000; Thermo Scientific, Wilmington, Del.).
# (§3) A combined aliquot of bacterial genomic DNA from all animals were used for preparation of standard curves. […] Thermal cycling conditions used were similar to the condition described below for quantitative real-time PCR. Standard curves were subsequently generated by quantitative real-time PCR of serial dilutions of these amplicons using the same genus and species-specific primers to permit absolute quantification based on gene copy number (Lee et al., 2006). […] The dry matter (DM) of the digesta was determined after drying overnight at 103° C. […]
# IL-8 = test: Cytokine gene expression in colonic tissue (qPCR): IL-8; format: in vivo, porcine; conditions: day 12, normalised relative quantity
# Procedure: (§4) Tissue samples were collected from the mesenteric side of the colon, rinsed with ice-cold sterile phosphate-buffered saline (Oxoid, Basingstoke, UK) and stripped of overlying smooth muscle. The samples were then cut into small pieces using a sterile scalpel blade and stored in 15 ml of RNAlater™ (Applied biosystems, Foster city, CA, USA) overnight followed by storage at −20° C. prior to RNA extraction. Total RNA was extracted from the colonic tissue samples using a GenElute Mammalian Total RNA Miniprep Kit (Sigma-Aldrich Corporation, St Louis, Mo., USA) according to the manufacturer's instructions. […] The total RNA was quantified and assessed for purity using the NanoDrop-ND1000 Spectrophotometer (Thermo Fisher Scientific Inc. MA, USA). The quality of the total RNA was determined by visualizing on an ethidium bromide stained 1% agarose gel. […]
# (§5) qPCR was carried out to quantify the following two sets of targets: the first set of target are a selected panel of cytokine genes; Interleukins (IL-1a, IL-1β, IL-4, IL-6, IL-8, IL-10, IL-17A, IL-21), Interferon (IFN-γ), Tumor Necrosis Factor (TNFα), Transforming growth factor (TGF-β) and Forkhead box P3 (FOXP3). […]
# (§6) Mean Ct values were converted to relative quantities using the formula, Relative quantity=(PCR efficiency) ΔCt, where ΔCt is the change in the Ct values of the sample relative to the highest expression (minimum Ct value). […]
# IL-1α = test: Cytokine gene expression in colonic tissue (qPCR): IL-1α; format: in vivo, porcine; conditions: day 12, normalised relative quantity
# Procedure: as §4, §5, §6
# Bifidobacteria spp. = test: qPCR of bacterial groups in digesta: Bifidobacteria; format: in vivo, pig; conditions: day 12
# Procedure: as §1, §2, §3
# TGF-β = test: Cytokine gene expression in colonic tissue (qPCR): TGF-β; format: in vivo, porcine; conditions: day 12, normalised relative quantity
# Procedure: as §4, §5, §6
# weaning piglet = conditions: previous experiments, cited from earlier work
# IL-1β = test: Cytokine gene expression in colonic tissue (qPCR): IL-1β; format: in vivo, porcine; conditions: day 12, normalised relative quantity
# Procedure: as §4, §5, §6
# IL-17 = test: Cytokine gene expression in colonic tissue (qPCR): IL-17; format: in vivo, porcine; conditions: day 12, normalised relative quantity
# Procedure: as §4, §5, §6
# weaning piglets = test: Body weight and growth performance of weaned piglets over 12 days; format: in vivo, pig
# From the text: This study was designed in a completely randomized block design with 5 dietary groups. The dietary groups are as follows: 1) control diet, 2) control diet+ZnO, 3) control diet+casein hydrolysate, 4) control diet+(3 glucan and 5) control diet+casein hydrolysate+β glucan. The control diet used in this study was based on previous work by Walsh et al. (2013). The levels of casein hydrolysate used were based on previous experiment and the levels of β glucan, derived from yeast (S. cerevisiae), used were based on a previous study by Sweeney et al. (2012). Diets were formulated to contain similar concentrations of digestible energy (DE) (14.5 MJ/kg) and standardized ileal digestible (SID) lysine (12.5 g/kg) contents. All amino acids requirements were met relative to SID lysine (NRC, 1998). All diets were milled on site and fed in meal form for 12 days after weaning.
# Forty weaned piglets [progeny of Landrace boars×(Large White×Landrace sow)] were weighed and blocked on the basis of initial live body weight (7.3±0.2 kg) and assigned to 1 of the 5 dietary treatment groups (n=8). Piglets were weighted individually at the beginning of the experiment (day 0=day of weaning), day 6 and day 12. The piglets were housed in groups of two on fully slatted floors (1.68×1.22 m). The ambient environmental temperature within the house was thermostatically controlled at 30° C. The feed was available ad libitum and water was available via nipple drinkers. Feed was available up to the final weighing and all remaining feed was weighed back for the purpose of calculating feed efficiency.
# The current study was a complete randomised design experiment and data analysed using the general linear model procedure of the Statistical Analysis Institute (SAS, 2004). The individual pen represented the experimental unit for the performance analysis. All the data were checked initially for normality using the PROC univariate procedure in SAS (2004). The microbial counts were log transformed before statistical analysis. Probability values of less than 0.05 were used as the criterion for statistical significance. Intercorrelations between cytokines and cytokine regulatory genes was analysed in a correlation matrix using PASW 18 (SPSS for Windows, […]; SPSS, Chicago, Ill.) and the Pearson's r value greater than 0.400 was considered to be positively correlated. All results are presented in the tables as least square means±standard error of the means (SEM).
# Bacteroidetes = test: qPCR of bacterial groups in digesta: Bacteroidetes; format: in vivo, pig; conditions: caecal digesta, day 12
# Procedure: as §1, §2, §3
smiles,measurement,setting,value
"[O]=[Zn] [ZnO, zinc oxide]",bacterial copy numbers of any other bacterial group,[1],No change
same,IL-8 expression,IL-8,0.003 RQ
same,IL-1α expression,IL-1α,0.006 RQ
same,Bifidobacteria spp. numbers,Bifidobacteria spp.; caecal digesta,8.94 log10 bacteria/g DM digesta
same,abundance of Bifidobacteria copy numbers,Bifidobacteria spp.; colonic digesta,8.96 log10 bacteria/g DM digesta
same,TGF-β expression,TGF-β,0.183 RQ
same,anti-inflammatory activity in the weaning piglet gut,weaning piglet; weaning piglet gut,anti-inflammatory activity
same,overall growth performance parameters,weaning piglet; weaning piglet,improved
same,IL-1β expression,IL-1β,0.010 RQ
same,IL-17 expression,IL-17,0.061 RQ
same,Gain to feed (Day 0-12),weaning piglets; Day 0-12,0.26 kg/kg
same,OADG (overall average daily gain) (Day 0-12),weaning piglets; Day 0-12,0.10 kg/day
same,OFI (overall feed intake) (Day 0-12),weaning piglets; Day 0-12,0.37 kg/day
same,Weight (kg) Weight 0-6,weaning piglets; Weight 0-6,7.53 kg
same,Weight (kg) Weight 6-12,weaning piglets; Weight 6-12 (end of experiment),8.64 kg and 8.64^a kg
same,abundance of Bacteroidetes copy numbers,Bacteroidetes,12.60 log10 bacteria/g DM digesta
